Read-outs that look alike come from different tables or passages of the source.
What was measured:
[1] = test system: human blood; assay: 129Xe NMR relaxation and signal of xenon delivered to human blood / red blood cell sample in vitro; type: in vitro ADME
Method: The portion removed accounted for approximately 30% of the total volume of the blood sample. Following removal of a portion of the plasma, xenon saturated saline (1 mL) was injected into the red blood cell (RBC) sample (1 mL) and the ^129Xe NMR was measured. The NMR spectra were measured on a Bruker AM-400 spectrometer.
By using short rf pulses of small tipping angle, ^129Xe NMR spectra were acquired as a function of time after injection of the xenon/saline mixture into the blood. NMR spectra were measured on a Bruker AM-400 spectrometer.
A solution of hyperpolarized xenon in […] ® was prepared in the same manner as described for the saline solution of hyperpolarized xenon, however, the shaker was charged with […] ® rather than saline. […] The […] ® solution was charged with laser polarized ^129Xe and an aliquot (1 mL) of this solution was added to human blood (1 mL). The spectra were obtained on a Bruker AM-400 spectrometer.
A solution of hyperpolarized xenon in FLUOSOL® was prepared in the same manner as described for the saline solution of hyperpolarized xenon, however, the shaker was charged with FLUOSOL® rather than saline. The FLUOSOL® solution was charged with laser polarized ^129Xe and an aliquot (1 mL) of this solution was added to human blood (1 mL). The spectra were obtained on a Bruker AM-400 spectrometer.

[2] = rat, in vivo
Method: Male rats weighing 200-250 grams were anesthetized by intramuscular injection of ketamine/xylazine/acepromazine (30/3/0.6 mg/kg). Supplemental intramuscular doses were administered as needed to maintain anesthesia. A venous catheter was placed into a tail vein, and the receiver/transmitter surface coil was placed over the heart and liver (FIG. 18). Acquisitions began at start of the injection. Prior to each experiment the rat was placed in lateral recumbency into the magnet. At the conclusion of each experiment, the catheter was removed and the rat was returned to its cage to recover from anesthesia.
The ^129Xe NMR spectra were obtained on a home-built NMR spectrometer interfaced with a Bruker 2.35 T magnet (xenon frequency: 27.68 MHz, bore diameter: 25 cm). […] For the spectroscopy experiment, spectra were obtained every second (pulse angle: ≈20°).
The rats, anesthesia and apparatus were as described in Example 10, above.

[3] = 129Xe spin-lattice relaxation time (T1) of hyperpolarized xenon in solution; type: physicochemical
Method: The design of the shaker used in the dissolution stage for xenon mixing and delivery is illustrated in FIG. 1. The shaker has a small sidearm which can be isolated from the main volume by a stopcock. The shaker is charged with a sample of either normal abundance or isotopically enriched xenon (80% ^129Xe, EG&G Mound, Miamisburg, Ohio, U.S.A.). Laser polarization is performed prior to admitting the xenon to the shaker. Briefly, approximately 5×10^−4 mol of 80. % isotopically enriched ^129Xe was optically pumped in a 30 cc cylindrical glass pumping cell (diameter≈30 mm). Before optical pumping, the cell was cleaned and coated with SURFASIL® (Pierce Chemical Co., Florence, Mass., U.S.A.); the cell was then evacuated to 10^−6 torr and loaded with one drop of melted rubidium metal in a dry nitrogen environment. Optical pumping was performed with a 1.3 W continuous-wave Ti:sapphire laser (794.7 nm) for 20-30 min, and the temperature of the cell was maintained at 60-80° C. by a temperature-controlled nitrogen gas stream. Typically, the apparatus produces xenon polarization levels in the range of 5-10%.
Following laser polarization, the polarized ^129Xe is frozen at liquid nitrogen temperatures in the sidearm in a magnetic field of approximately 50 mT provided by a small permanent magnet. The magnetic field is used in the freezing stage to prevent the decay of xenon polarization. The xenon is sublimated and then admitted into the solution. The small size of the shaker allows for the accumulation of several atmospheres of xenon pressure which aids in increasing the xenon concentration in the solution. During the dissolution procedure, the vessel is vigorously shaken to help dissolve the xenon gas. The resulting xenon solution is extracted with a syringe through a high-pressure rubber septum. In those examples below wherein a solution NMR study is performed on an in vitro sample, the xenon is immediately injected into an NMR tube which contains the sample to be studied.
Solutions of hyperpolarized ^129Xe in partially deuterated benzene (25% C6D5H, 75% C6D6) were prepared as described above for saline solutions of ^129Xe with the exception that the shaker was charged with the benzene solution rather than saline. Typically, 4×10^−4 mol of enriched ^129Xe (80%, EG&G Mound) were used in one experiment at a pressure of 1 atm. ^129Xe NMR was performed at 51 MHz on a Quest 4300 spectrometer (Nalorac Cryogenics, Martinez, Calif., U.S.A.) with a home built probe and a tipping angle of 3°. ^1H NMR was performed at 185 MHz with a home built probe and a tipping angle of 3°.
Hyperpolarized xenon and mixtures of hyperpolarized xenon and cyclodextrins were prepared generally as discussed above. SPINOE signals of 0.05 M cyclodextrin solutions in deuterated DMSO were measured as described above in Example 8.

[4] = test system: red blood cell (RBC)
Method: NMR spectra were measured on a CMX Infinity spectrometer (Chemamagnetics-Otsuka Electronics, Fort Collins, Colo., U.S.A.) at a magnetic field of 4.3 Tesla.
The xenon exchange rate between the extracellular and intracellular compartments of a RBC/saline/plasma sample was measured by selectively inverting the xenon saline/plasma NMR line and observing the recovery of the two signals. The selective inversion was achieved by an amplitude-modulated Gaussian pulse of 1 ms duration centered at the frequency of the saline/plasma signal. […] A field gradient pulse of 1 ms was applied after the inversion pulse to dephase any components of the transverse magnetization. After the inversion pulse, xenon spectra were taken at fixed time intervals using a small tipping angle (20°). Following the addition of the xenon/saline solution into the RBC sample, a delay of 3 seconds before the application of the inversion pulse insured that the xenon/RBC system was well mixed and equilibrated.
[formula] where τRBC and τp1 are residence time constants for xenon in the RBC and saline/plasma, and 1/τ=1/τRBC+1/τp1. S^oRBC and S^op1 are the initial intensities for the RBC and the plasma/saline components, respectively, immediately after the inversion pulse. The effect of the spin-lattice relaxation is neglected since τ<<T1, making S^oRBC+S^op1 a constant during the exchange process.

[5] = in saline; STP volume of xenon dissolved in 1 liter of liquid at 1 atm gas pressure; cited from earlier work
[6] = test system: red blood cell (RBC); conditions: room temperature; Herbst et al. 1989; cited from earlier work
[7] = selective inversion experiment, 4.3 Tesla

Row | SMILES | T1 of the narrow peak ([1]; xenon/FLUOSOL solution 1 mL added to human blood 1 mL, 216 ppm RBC peak) | T1 decay time of the signal at 194 ppm ([1]; xenon/INTRALIPID solution 1 mL added to human blood 1 mL) | T1 decay time relative to xenon in saline water/blood mixture ([1]; xenon/INTRALIPID solution in blood, 194 ppm signal) | time of maximum xenon signal intensity after start of injection [2] | 129Xe T1 ([3]; 0.1 M p-nitrotoluene in deuterated benzene) | 129Xe T1 ([3]; 0.1 M α-cyclodextrin solution in deuterated DMSO) | T1 of xenon ([3]; H2O/saline (0.9% NaCl), 9.4 T) | xenon T1 ([3]; in INTRALIPID solution) | observed spin-lattice relaxation time of 129Xe in solution ([3]; normal benzene, combination of gas and solution relaxation times) | observed spin-lattice relaxation time of 129Xe in solution ([3]; partially deuterated benzene (25% C6D5H, 75% C6D6)) | T1 of xenon ([3]; saline made with D2O) | equilibrium distribution of the integral of the two peaks (RBC vs saline/plasma) [4] | ratio of integrated intensities of broad (FLUOSOL) and narrow (RBC) peaks [4] | ratio of peak of xenon in INTRALIPID solution to peak of intracellular xenon [4] | residence time constant in saline/plasma, τpl [4, 7] | residence time constant in the RBC, τRBC [4, 7] | exchange time constant τ (1/τ=1/τRBC+1/τpl) ([4]; selective inversion of saline/plasma line, 4.3 Tesla) | Ostwald coefficient [5] | residence time constant in the RBC, τRBC [6]
1 | [Xe] [xenon] | 13 ± 1 s | 16 s | approximately 3 fold | 7 s | > 500 s | 20 s | 66 s | 40 ± 3 s | ~200 s | ~1000 s | ≈ 1000 s | approximately 50% | approximately 3 | approximately 6:1 | 29.1 ± 2 ms | 20.4 ± 2 ms | 12.0 ± 1 ms | 0.0926 | 
2 | O [water] |  |  |  |  |  |  |  |  |  |  |  |  |  |  |  |  |  |  | 12 ± 2 ms
